# Results as given in patent US20140235649A1, “USE OF PHOSPHATASE INHIBITORS OR HISTONE DEACETYLASE INHIBITORS TO TREAT DISEASES CHARACTERIZED BY LOSS OF PROTEIN FUNCTION” (LIXTE BIOTECHNOLOGY, INC., priority 2011, published 2014).
# “Also recorded” adds a separate entry of the source.
# Key:
# ΔGBA-N370S = test: Metabolic [35S] pulse chase assay, HeLa cells with ΔGBA-N370S vector; assay type: cell-based, human; conditions: for increase in radioactively labeled protein quantity: N370S mutant; for GBA quantity: both N370S and L444P mutants
# Protocol: Human GBA gene was cloned into pCMV6-Entry vector (Origene; Rockville, Md.). Mutagenesis was performed using a QuikChange Lightning Site-directed mutagenesis kit (Agilent; Santa Clara, Calif.). Mutagenesis reaction was conducted using primers with N370S and L444P mutation sites. For each mutant, the sequence of GBA genes was verified by sequencing the entire coding regions.
# Metabolic [^35S] pulse chase assay was performed as previously described with minor modifications (16). A total of 5×10^5 HeLa cells were transfected with GBA vectors through FuGene 6 transfection reagent (Roche; Indianapolis, Ind.). Cells were used for pulse chase assay 24 hr after transfection. Cells were starved in methionine-depleted medium for 15 min followed by 15 min labeling in methionine-free Delbecco's modified Eagle medium (DMEM) supplemented with 10% FBS and 0.2 mCi/mL [^35S]-methionine ([…] specific activity, Perkin Elmer). The cells were then chased in DMEM with 10% FBS and 3 mg/mL methionine. Cells were extracted for protein within various durations after radioactive labeling. Cells were lysed in RIPA lysis buffer containing with Halt proteinase inhibitor cocktail (Thermo; Waltham, Mass.). GBA proteins were purified through immunoprecipitation using 200 ug total lysate with Flag antibody (Origene; Rockville, Md.). Precipitated proteins were resolved on NuPAGE Novex 4-12% Bis-Tris Gel (Invitrogen; Carlesbad, Calif.) and measured by liquid scintillation counting. The gel was fixed and incubated in EN3HANCE (Perkin Elmer; Waltham, Mass.) for 45 min and dried for X-ray film exposure.
# mutant VHL protein = test: Immunoprecipitation assay for chaperonin binding to mutant VHL protein; assay type: cell-based, human; conditions: FIG. 10D
# Protocol: 200 μg of whole-cell lysates were precipitated using DynaBeads Protein G immunopreciptation kit (Invitrogen) with monoclonal antibodies against Flag or HA (1:200, Origene). The beads were washed extensively and eluted with glycine. Precipitated protein was analyzed by western blot.
# ΔSDHB-L65P = ΔSDHB-L65P protein half-life through CHX treatment, Western blot, HeLa cells; assay type: cell-based, human; conditions: L65P mutant
# Protocol: Western blot analysis was performed as previously described with minor modifications (Zhuang et al, 2011). Microdissected tumor tissue and cell pellets were extracted for protein using RIPA lysis buffer supplemented with Halt proteinase inhibitor cocktail (Thermo Scientific, Rockford, Ill.). Protein was vortexed at 4° C. for 20 min and centrifuged in 12,000 g for 10 min at 4° C. Supernatant was collected and protein quantity was identified through a Bio-Rad (Hercules, Calif.) Protein Assay kit. Equal amount of proteins were separated on NuPAGE 4-12% Bis-Tris gel (Invitrogen, Carlsbad, Calif.) and transferred to PVDF membranes (Invitrogen). Membranes were blocked in 5% skim dried milk in PBST and blotted with primary antibody. Protein expression was identified through chemiluminescence kit (Thermo Scientific). The following antibodies were used: SDHA (1:1,000, Cell Signaling Technology, Beverly, Mass.), SDHB (1:1,000, Sigma-Aldrich, St. Louis Mo.), Flag (1:2,000, Origene, Rockville, Md.), Ubiquitin (1:1,000, Abcam, Cambridge, Mass.), HA (1:2,000, Origene), Hsp90 (1:1,000, Cell Signaling Technology) and β-Actin (1:1,000, Santa Cruz Biotechnology, Inc., Santa Cruz, Calif.).
# HeLa cells were maintained in DMEM containing 10% FBS (Invitrogen). Cells were transfected with SDHB vectors by FuGENE 6 transfection reagent (Roche, Indianapolis, Ind.). Medium was changed 4 hours after transfection and cells were maintained 48 hours before cycloheximide (20 μg/mL, Sigma-Aldrich) treatment.
# Ubiquitin-HA vector was described previously (Kamitani et al. (1997)). Human wild type SDHB gene was cloned into pCMV6-Entry vector (Origene). Hot spot missense mutations in SDHB related PHEOs/PGLs based on previous findings (Van Nederveen et al. (2006); Henderson et al. (2009); Pawlu et al. (2005)). Mutagenesis was performed based on wild type SDHB vector using a Quikchange Lightning Site-Directed Mutagenesis Kit (Agilent, Santa Clara, Calif.). For each mutant, the sequence of SDHB gene was verified through sequencing the entire coding region of the gene. Vectors were purified through PureLink HiPure Plasmid Maxiprep kit (Invitrogen) for transfection and cell free protein expression.
# VHL protein = VHL protein levels in tumor cells from VHL derived tumors (Examples 6-7); conditions: Example 6, versus untreated cells
# SDHB protein = SDHB protein levels in tumor cells from SDHB derived tumors (Examples 9-10); conditions: Example 9, versus untreated cells
# [1] = test system: beta-glucocerebrosidase (GBA); test: GBA levels in human cells from Gaucher's disease type 1 / type 3 patients (Examples 2-4); conditions: for GBA levels / amount of GBA: Gaucher's disease type 1 and type 3 cells, 24 hours (Example 3, FIG. 1-3); for GBA levels: Gaucher's disease type 3 cells, 24 hours (Example 2)
Structure (SMILES),increase in radioactively labeled protein quantity (ΔGBA-N370S) [%],GBA quantity (ΔGBA-N370S),Hsp90 affinity to VHL mutants (mutant VHL protein),degradation / loss of mutant SDHB protein (ΔSDHB-L65P),VHL levels (VHL protein),degradation of VHL (VHL protein),SDHB levels (SDHB protein),degradation of SDHB (SDHB protein),GBA levels / amount of GBA [1],GBA levels [1],GBA levels / amount of GBA ([1]; listed as LB2)
"O=C(CCCCCCC(=O)Nc1ccccc1)NO [SAHA, suberoylanilide hydroxamic acid, reference compound]",12,increased GBA quantity,decreased,slowed the degradation of mutant protein; also recorded: decreased the loss of mutant SDHB,significantly higher than in untreated cells,decreased degradation of VHL,significantly higher than in untreated cells,decreased degradation of SDHB,"increased; also recorded: increased in all treatments, and the increase was not dose-dependent; also recorded: significantly higher than in untreated cells",significantly higher than in untreated cells,
O=C(CCCCCNC(=O)c1ccccc1S)Nc1cccnc1 [LB-205],27,increased GBA quantity,decreased,decreased the loss of mutant SDHB,significantly higher than in untreated cells,decreased degradation of VHL,significantly higher than in untreated cells,decreased degradation of SDHB,"increased; also recorded: increased in all treatments, and the increase was not dose-dependent",significantly higher than in untreated cells,significantly higher than in untreated cells
